In patent publication US20220380341A1, “INHIBITORS OF HIV-1 NEF FOR THE TREATMENT OF HIV DISEASE” (priority 2018, published 2022):
Like-named read-outs stand apart in the source and are kept apart here.

Experiments:
HIV-1NL4-3 = assay: HIV-1 infectivity assay in TZM-bl reporter cell line (LTR-luciferase, 48 h); assay type: cell-based; conditions: Human immunodeficiency virus 1, TZM-bl
Summary of the method: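 Luciferase read-out 48 h post-infection; compound at 1 μM during HIV-1NL4-3 infection of TZM-bl cells. Percent inhibition scaled to DMSO wild-type virus (0%) and DMSO Nef-defective virus (100% of Nef-dependent effect). Viability checked separately in uninfected cells by Cell Titer Blue.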

TZM-bl cell line = assay type: cell-based; conditions: human, 1 μM
Summary of the method: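 Nef-dependent infectivity in TZM-bl cells: HIV-1NL4-3 infection with 1 μM compound, luciferase read at 48 h, normalized against DMSO wild-type and Nef-defective controls. Compound cytotoxicity in uninfected cells measured by Cell Titer Blue.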

HIV-1 NefNL4-3 = HIV-1 NefNL4-3 (Human immunodeficiency virus type 1 group M subtype B, UniProt P03406, A33V/T15A/T51N/V11I); assay: Surface plasmon resonance binding to recombinant full-length Nef (NL4-3); conditions: for RU30/RUNef (extent of binding): response units at 30 μM relative to Nef immobilized on the SPR chip; for Nef NL4-3 Binding, SPR 1:1 or 2-site fitting KD1: 1:1 Langmuir fit where the KD2 cell says '1 to 1 fitting', else 2-site fit
[1] = 1.0 μM, TZM-bl reporter cell line, Table 4, read-out: % Infectivity Inhibition
[2] = 48 h, Table 1, TZM-bl cells, 1 μM, 48 h, 100% = Nef-defective HIV-1, read-out: HIV-1 Infectivity % Inhibition Norm. to Δ-Nef @ 1 μM
[3] = KD, M, Table 4, SPR fit 2-step induced fit, KD = koff/kon × koff2/(koff2 + kon2)
[4] = Nef NL4-3 Binding, SPR 2-state fitting KD, Table 1, 2-step induced-fit model
[5] = Table 4, 2-step induced fit, T = 1/koff2
[6] = read-out: Nef NL4-3 Binding, SPR 1:1 or 2-site fitting KD2, Table 1, 2-site fit, second component
[7] = KD, M, Table 4, SPR fit 1:1 Langmuir, KD = koff/kon
[8] = Table 4, 1:1 Langmuir fit, T = 1/koff

SMILES | inhibition at 1 µM (HIV-1NL4-3; [1]) | inhibition at 1 µM (HIV-1NL4-3; [2]) | % Cell Viability (TZM-bl cell line) | Percent Viability @ 1 μM (TZM-bl cells) (TZM-bl cell line) | Kd (HIV-1 NefNL4-3) | Kd (HIV-1 NefNL4-3; [3]) | Kd (HIV-1 NefNL4-3; [4]) | T, minutes (residence time) (HIV-1 NefNL4-3; [5]) | Kd (HIV-1 NefNL4-3; [6]) | RU30/RUNef (extent of binding) (HIV-1 NefNL4-3) | Kd (HIV-1 NefNL4-3; [7]) | T, minutes (residence time) (HIV-1 NefNL4-3; [8]) | Nef NL4-3 Binding, SPR 1:1 or 2-site fitting KD1 (HIV-1 NefNL4-3; Table 1)
O=C(NCC1CC1)c1ccc(-c2nn(-c3nc4ccccc4[nH]3)c(O)c2CCc2ccc(F)cc2)cc1 [Compound I-1201, 4-[1-(1H-1,3-benzodiazol-2-yl)-4-[2-(4-fluorophenyl)ethyl]-5-hydroxy-1H-pyrazol-3-yl]-N-(cyclopropylmethyl)benzamide] | 11.8% | 11.8% | 95.4% | 95.4% | 369 nM | 740 nM | 740 nM | 2.06E + 03 minutes | 2510 nM | 2.17E- 02 | – | – | –
Oc1c(CC2CCN(CC(F)(F)F)CC2)c(-c2ccc(C(F)(F)F)cc2)nn1-c1nc2ccccc2[nH]1 [Compound I-1005, 1-(1H-1,3-benzodiazol-2-yl)-4-{[1-(2,2,2-trifluoroethyl)piperidin-4-yl]methyl}-3-[4-(trifluoromethyl)phenyl]-1H-pyrazol-5-ol] | 49.2% | 49.2% | 93.5% | 93.5% | 91 nM | – | – | – | – | 1.26E- 03 | 91 nM | 9.47E + 00 minutes | –
O=C(c1ccoc1)N1CCC(c2nn(-c3nc4ccccc4[nH]3)c(O)c2CCc2ccc(F)cc2)CC1 [Compound I-737, 1-(1H-1,3-benzodiazol-2-yl)-4-[2-(4-fluorophenyl)ethyl]-3-[1-(furan-3-carbonyl)piperidin-4-yl]-1H-pyrazol-5-ol] | 0% | -4.8% | 93.0% | 93.0% | 0.00489 nM | 1.7 nM | 1.7 nM | 9.06E + 03 minutes | 4000 nM | 1.36E- 02 | – | – | –
CC(=O)N1CCCC(Cc2c(C3CC3)nn(-c3nc4ccccc4[nH]3)c2O)C1 (stereo not shown) [Compound I-780, 1-(3-{[1-(1H-1,3-benzodiazol-2-yl)-3-cyclopropyl-5-hydroxy-1H-pyrazol-4-yl]methyl}piperidin-1-yl)ethan-1-one] | 0% | – | 99% | – | – | – | – | – | – | 4.47E- 03 | 4070 nM | 8.13E + 00 minutes | –
CS(=O)(=O)c1ccc(-c2nn(-c3nc4ccccc4[nH]3)c(O)c2CCC2CCN(CC(F)(F)F)CC2)cc1 [Compound I-154, 1-(1H-1,3-benzodiazol-2-yl)-3-(4-methanesulfonylphenyl)-4-{2-[1-(2,2,2-trifluoroethyl)piperidin-4-yl]ethyl}-1H-pyrazol-5-ol] | 45.4% | 45.4% | 69.3% | 69.3% | 28800 nM | – | – | – | – | 4.50E- 03 | 28800 nM | 6.80E + 00 minutes | –
CC(C)OC(=O)N1CCC(CCc2c(-c3ccc(Br)cn3)nn(-c3nc4ccccc4[nH]3)c2O)CC1 [Compound I-717, propan-2-yl4-{2-[1-(1H-1,3-benzodiazol-2-yl)-3-(5-bromopyridin-2-yl)-5-hydroxy-1H-pyrazol-4-yl]ethyl}piperidine-1-carboxylate] | – | -1.8% | – | 104.1% | – | – | – | – | – | – | – | – | No Interaction
O=C(C1CCOC1)N1CCC(Cc2nn(-c3nc4ccccc4[nH]3)c(O)c2CCc2ccc(F)cc2)CC1 (stereo not shown) [Compound I-765, 1-(1H-1,3-benzodiazol-2-yl)-4-[2-(4-fluorophenyl)ethyl]-3-{[1-(oxolane-3-carbonyl)piperidin-4-yl]methyl}-1H-pyrazol-5-ol] | – | 13.5% | – | 99.3% | – | – | – | – | – | – | – | – | No Interaction
O=C(c1c(O)cc(O)cc1O)N1CCCC1c1nn(-c2nc3ccccc3[nH]2)c(O)c1CCc1ccc(F)cc1 (stereo not shown) [Compound I-762, 2-{2-[1-(1H-1,3-benzodiazol-2-yl)-4-[2-(4-fluorophenyl)ethyl]-5-hydroxy-1H-pyrazol-3-yl]pyrrolidine-1-carbonyl}benzene-1,3,5-triol] | 25.7% | 25.7% | 98.6% | 98.9% | 277 nM | 3.98 nM | 3.98 nM | – | 7460 nM | – | – | – | –
